Data reported in paper PMC9227536, “Prediction of Pharmacokinetics of IDP-73152 in Humans Using Physiologically-Based Pharmacokinetics” (Pharmaceutics, 2022).
Where two headings read alike, the source gives them in different places.

Key:
[1] = Blood stability in rat blood (CLblood); type: in vitro ADME
Procedure: In contrast, however, the compound was unstable in the rat blood and plasma. […] The blood containing IDP-73152 was incubated at 37 °C in a water bath, and aliquots (50 μL) were collected from the mixture at 0, 10, 30, 60, 120, and 240 min. The samples were centrifuged for 5 min at 10,000× g/4 °C, and the plasma was collected/stored at -80 °C until analysis. For the estimation of the clearance in the blood (CLblood), in rats, the disappearance of IDP-73152 in the blood was assumed to be mediated by first-order kinetics. […]×total volume of the blood×BP ) to calculate CLblood.

[2] = Caco-2 cell bidirectional permeability; type: in vitro ADME; details: human; for recovery at 2 h, 10 µM: Caco-2, Caco-2
Procedure: In this study, bidirectional permeability assays were conducted as described in the literature, with minor modifications. Briefly, Caco-2 cells (KCLB, Seoul, Korea) were seeded on Transwell® inserts (Corning Inc., Glendale, AZ, USA) and grown in a humidified atmosphere of 5% CO2 at 37 °C to form a confluent monolayer over 3 weeks. On day 21, after seeding, the integrity of the cell monolayer was assessed by measuring the transepithelial electrical resistance using an epithelial voltohmmeter (EVOM and EVOMX, World Precision Instruments, Sarasota, FL, USA). The medium in donor and receiver compartments was then replaced with 5 mM of HEPES in HBSS, and preincubated for 10 min at 37 °C. The permeability study was initiated by adding IDP-73152 (in a 10 µM final concentration in the chambers) to an apical insert (for apical-to-basolateral (A-to-B) transport) or a basolateral chamber (for basolateral-to-apical (B-to-A) transport). Samples were collected from both compartments at 30 min intervals up to 2 h. Throughout the study, the temperature and atmosphere of the compartments were maintained at 37 °C and 5% CO2. The samples were stored at −80 °C until analysis and the concentration of the compound was determined by LC-MS/MS assay for IDP-73152 [10]. The apparent permeability coefficient (Papp, in cm/s) was calculated using the following equation:(1) Papp=(dQ/dt/C0×A) where dQ/dt is the rate of IDP-73152 transport across monolayers (nmol/s), C0 is the initial concentration of IDP-73152 (10 μM), and A is the surface area of the insert (1.12 cm^2). The efflux ratio of IDP-73152 in the Caco-2 cell system was calculated by the ratio of Papp from B-to-A transport (Papp,B-to-A) to Papp from A-to-B transport (Papp,A-to-B).

Question: With `CC(C)(C)[C@H](NC(=O)[C@H](CC1CCCC1)CN(O)C=O)C(=O)N1CCC(NCc2cc(F)c(F)cc2F)CC1` [IDP-73152] as the molecule, how does the CLblood ([1]; fresh whole blood from rats, 1 μM, 37 °C) read?
Answer: Its CLblood is 0.717 ± 0.383 mL/min/kg.

Question: And the “contribution of CLblood to the CLp” value ([1]; rats)?
Answer: Its value is 2.15%.

Question: And the recovery at 2 h, 10 µM ([2]; read-out: recovery, A to B transport)?
Answer: Its recovery at 2 h, 10 µM is 96.6 ± 5.1%.

Question: And the recovery at 2 h, 10 µM ([2]; read-out: recovery, B to A transport)?
Answer: Its recovery at 2 h, 10 µM is 93.4 ± 3%.

Question: And the efflux ratio at 2 h, 10 µM ([2]; Caco-2, Papp,B-to-A / Papp,A-to-B)?
Answer: Its efflux ratio at 2 h, 10 µM is less than 2.

Question: What about the Papp A→B at 2 h, 10 µM ([2]; Caco-2 monolayer, 10 µM, apical-to-basolateral) of the same molecule?
Answer: The Papp A→B at 2 h, 10 µM was 31.2 ± 1.93 ×10⁻⁶ cm/s.

Question: And the Papp B→A at 2 h, 10 µM ([2]; Caco-2 monolayer, 10 µM, basolateral-to-apical)?
Answer: The Papp B→A at 2 h, 10 µM was 49.5 ± 3.5 ×10⁻⁶ cm/s.
